# Laboratory results reported in patent publication US7863040B2, “Ready-to-use whole blood collection vessel” (Roche Diagnostics Operations, Inc., priority 2006, dated 2011).
# Legend:
# [1] = system: erythrocytes; assay: Visual evaluation of hemolysis (time until a clear solution is observed); type: cell-based
# Description: Whether the conditions for differential hemolysis are appropriate can be easily and preferably determined by using the following standardized procedure. A whole blood sample with a hematocrit of 40 is diluted 1:10 and then mixed 1:1 with the candidate hemolysis reagent. The efficacy of a reagent for bringing about differential hemolysis is seen visually. Upon lysis of the erythrocytes the mixture becomes clear. If precipitation of sample constituents occurs the sample becomes turbid or viscous or both.
# As indicated above, the conditions used in a method of differential hemolysis according to the present invention can easily be assessed visually. If a whole blood sample is incubated with an appropriate candidate reagent for differential hemolysis the minimal concentration required to hemolyze red blood cells can be recognized as the concentration rendering the turbid blood sample transparent or clear. The highest possible concentration is the one still leading to a transparent and non-viscous sample.
# (§1) Solution A: Fresh EDTA-stabilized whole blood is diluted with 0.15 molar sodium chloride solution in the ratio 1:10 (50 μL EDTA-blood plus 450 μL sodium chloride solution).
# In the case of the addition of a second anion, e.g., iodine (1-Butyl-3-methylpyridiniumchloride/KJ) the stated salt is added in an equimolar amount.
# Hemolysate is prepared by mixing solution A and B in equal volumes, e.g., 500 μL solution A plus 500 μL solution B.
# After mixing the hemolysate is inspected visually for turbidometry and clearness immediately after mixing, after 1 minute, 2, 5, 6, 7, 20 and 40 minutes. The time until a clear solution is observed is recorded.
# [2] = system: EDTA-anticoagulated whole blood; assay: Processing of EDTA-anticoagulated whole blood in a tube with reagent for differential hemolysis (time to optically clear lysate); type: cell-based
# Description: This reagent for differential hemolysis thus has a concentration of about 25% BMPBF4. […] 250 microliter of EDTA-anticoagulated whole blood is pipetted into a vial containing 5 milliliter of this lysis reagent. For hemolysis the content of the tube is gently mixed by shaking. An optically clear lysate is obtained within five minutes. The lysate is stored at 4° C. Stability of the lysate is inspected after 1, 4 and 7 days by visual inspection. […] This reagent for differential hemolysis thus has a concentration of about 2% Me-octPCl. 250 microliter of EDTA-anticoagulated whole blood is pipetted into a vial containing 5 milliliter of this lysis reagent. For hemolysis the content of the tube is gently mixed by shaking. An optically clear lysate is obtained within five minutes. The lysate is stored at 4° C. Stability of the lysate is inspected after 1, 4 and 7 days by visual inspection. […] This reagent for differential hemolysis has a concentration of about 15% Me-octPCl. […] For hemolysis the content of the tube is gently mixed by shaking. An optically clear lysate is obtained within five minutes. The lysate is stored at 4° C. Stability of the lysate is inspected after 1, and 2 days by visual inspection. […] This reagent for differential hemolysis has a concentration of about 10% COMPCl. […]
# [3] = system: erythrocytes; assay: Microscopic evaluation of hemolysis, Trypane blue staining; type: cell-based; conditions: 1 in 10 diluted whole blood, reagent 25%
# Description: The integrity of red blood cells can for example be easily assessed by appropriate life stains. In a preferred embodiment according to the present invention trypane blue is used in order to assess the integrity of a red blood cell membrane. […] The membrane integrity of a red blood cell is easily assessed under the microscope after staining a sample with trypane blue. The percentage of disrupted red blood cells is calculated by counting intact red blood cells before and after the treatment, by then dividing the first number by the latter number and by then multiplying this value by 100. Red blood cells that are solubilized are referred to as lyzed red blood cells or as lyzed erythrocytes.
# as §1
# Solution B: A solution of the hemolysis reagent in 0.15 molar sodium chloride is prepared where the concentration of the hemolysis reagent is twice as high as the desired final concentration in the hemolysate, e.g., to get a final concentration of 25% of 1-Butyl-4-methylpyridinium tetrafluoroborate a solution of 50% ([…] plus 50 mL 0.15 molar sodium chloride in water) is prepared. […]
# [4] = system: erythrocytes; assay: Microscopic evaluation of hemolysis, May-Grünwald staining; type: cell-based
# Description: Solution A: Fresh EDTA-stabilized whole blood is diluted with 0.15 molar sodium chloride solution in the ratio 1:10 (50 μL EDTA-blood plus 450 μL sodium chloride solution). Solution B: […] Hemolysate is prepared by mixing solution A and B in equal volumes, e.g., 20 μL solution A plus 20 μL solution B After mixing of the hemolysate a droplet is smeared on a microscope slide, air dried at room temperature and stained with May-Grünwald staining reagent (Merck Cat. No. 1.01424 May-Grünwald's Eosin Methylene Blue Solution). […] Microscopy is performed by oil immersion light microscopy (magnification ×630).
# [5] = in vivo; cited from earlier work
# [6] = cited from earlier work
# [7] = final concentration 25% (weight/volume), whole blood final dilution 1:20
# [8] = final concentration 12.5% (weight/volume)
compound,measurement,setting,value
"CCCC[n+]1cccc(C)c1.[Cl-] [1-Butyl-3-methyl pyridiniumchloride, 1-Butyl-3-methylpyridiniumchloride]",clear after (min.),[1]; [7],turbid
CCCCn1cc[n+](C)c1.F[B-](F)(F)F [1-Butyl-3-methyl-imidazolium tetrafluoroborate],clear after,[1]; [7],20 min
CCCC[n+]1ccc(C)cc1.F[B-](F)(F)F [1-Butyl-4-methylpyridinium tetrafluoroborate],time until optically clear lysate is obtained,"[2]; 250 microliter blood into 5 milliliter reagent, about 25% BMPBF4",five
same,"Light microscopy of hemolyzed whole blood, Trypane blue staining",[3]; 2.5 min incubation time,Only few residual erythrocytes are left
same,"Light microscopy of hemolyzed whole blood, Trypane blue staining",[3]; 15 min incubation time,No erythrocytes or membranes are left
same,clear after (min.),[1]; final concentration 6% (weight/volume),Turbid
same,clear after,[1]; [8],40 min
same,clear after,[1]; [7],20 min
same,"Light microscopy of hemolyzed whole blood, May-Grünwald staining","[4]; 1 in 10 diluted whole blood, reagent 25%","No erythrocytes or membranes are left, nuclei are still intact"
CCCCCC[n+]1ccccc1.[Cl-] [1-Hexylpyridiniumchloride],clear after (min.),[1]; [8],turbid
same,clear after,[1]; [7],7 min
CCCCCCCC[N+]1(C)CCCC1.[Cl-] [1-Methyl-1-octyl pyrrolidiniumchloride],clear after (min.),[1]; final concentration 2.5% (weight/volume),turbid
same,clear after (min.),[1]; [7],immediately
CCCCCCCCOC[n+]1cccc(C(N)=O)c1.[Cl-] [3-Carbamoyl-1-octyloxymethyl pyridiniumchloride],time until optically clear lysate is obtained,"[2]; 50 microliter blood into 130 microliter reagent, about 10% COMPCl",five
same,clear after (min.),[1]; final concentration 1.5% (weight/volume),immediately
same,clear after (min.),[1]; final concentration 6.25% (weight/volume),immediately
same,clear after (min.),[1]; [8],immediately
"COc1c(C)c2c(c(O)c1C/C=C(\C)CCC(=O)OCCN1CCOCC1)C(=O)OC2 [MMF, mycophenolate mofetil]",therapeutic trough concentration,[5],1000 to 3500 µg/L
CCCCCCCC[n+]1ccccc1.[Cl-] [N-Octylpyridiniumchloride],clear after,[1]; [7],2 min
"C=CC[C@@H]1/C=C(\C)C[C@H](C)C[C@H](OC)[C@H]2O[C@@](O)(C(=O)C(=O)N3CCCC[C@H]3C(=O)O[C@H](/C(C)=C/[C@@H]3CC[C@@H](O)[C@H](OC)C3)[C@H](C)[C@@H](O)CC1=O)[C@H](C)C[C@@H]2OC [Tacrolimus, tacrolimus]",potency relative to cyclosporin in vitro,[6],up to 100 times
same,therapeutic trough concentration,[5],5 to 20 µg/L
"CCCCCCCCOS(=O)(=O)[O-].CCCCn1cc[n+](C)c1 [l-Butyl-3-methyl-imidazoliumoctylsulfate, 1-Butyl-3-methyl-imidazoliumoctylsulfate]",clear after (min.),[1]; [7],immediately
"CO[C@H]1C[C@@H]2CC[C@@H](C)[C@@](O)(O2)C(=O)C(=O)N2CCCC[C@H]2C(=O)O[C@H]([C@H](C)C[C@@H]2CC[C@@H](O)[C@H](OC)C2)CC(=O)[C@H](C)/C=C(\C)[C@@H](O)[C@@H](OC)C(=O)[C@H](C)C[C@H](C)/C=C/C=C/C=C/1C [sirolimus, rapamycin]",therapeutic trough concentration,[5],5 to 15 µg/L
"O [water, reference compound]","Light microscopy of hemolyzed whole blood, May-Grünwald staining",[4]; 1 in 10 diluted whole blood hemolyzed with water,Erythrocyte membranes and nuclei are visible
